In BigSolDB 2.1:

CC(C)(C)C(=O)C(Oc1ccc(Cl)cc1)n1ccnc1 (centres undefined)
solubility (mole fraction)
Settings | 278.15 K | 283.15 K | 288.15 K | 293.15 K | 298.15 K | 303.15 K | 308.15 K | 313.15 K | 318.15 K
in ethanol | 0.0801 | 0.0952 | 0.112 | 0.133 | 0.159 | 0.184 | 0.215 | 0.249 | 0.287
in n-butanol | 0.0804 | 0.0957 | 0.112 | 0.132 | 0.156 | 0.18 | 0.209 | 0.243 | 0.282
in n-heptanol | 0.0686 | 0.0797 | 0.0937 | 0.111 | 0.131 | 0.152 | 0.18 | 0.21 | 0.245
in n-hexanol | 0.073 | 0.0858 | 0.0999 | 0.119 | 0.141 | 0.164 | 0.192 | 0.223 | 0.263
in n-pentanol | 0.0781 | 0.0912 | 0.107 | 0.127 | 0.15 | 0.174 | 0.204 | 0.238 | 0.273
in n-propanol | 0.0842 | 0.0998 | 0.117 | 0.139 | 0.165 | 0.19 | 0.22 | 0.254 | 0.29
